Laboratory results reported in patent publication EP0347843A1, “Vitamine E composition improved in absorption” (Eisai Co., Ltd., priority 1988, dated 1989).
≈ marks a conversion by molar mass, not a printed value. Read-outs that look alike come from different tables or passages of the source.

Assay: physchem
Description: It was here determined how much influence a mixture of oleic acid and lecithin would put on the solubility of d-alpha-tocopherol. It was determined with changing ratios of the oleic acid to the lecithine how to dissolve d-alpha-tocopherol in 20 mM solution of bile acid.

With `Cc1c(C)c2c(c(C)c1O)CC[C@@](C)(CCC[C@H](C)CCC[C@H](C)CCCC(C)C)O2` [d-alpha-tocopherol] the solubility was “high solubility” and the solubility (20 mm bile acid solution) was 2000 µg/mL (≈ 4.64 mM).
